# Measurements from US7696245B2, “Fluorescent probe for zinc” (Sekisui Medical Co., Ltd., priority 2003, dated 2010).
# Tests used:
# [1] = Rate constant of complex formation with zinc ions (stopped-flow); assay type: physicochemical; conditions: 1 μM compound, 50 μM zinc ions, 100 mM HEPES buffer (pH 7.4), 25° C.
# Procedure: The rate constant of the formation of a complex between zinc ions and each of Compounds 8, 13, 17, and 22 were investigated. Changes with time of fluorescence intensity were measured in a stopped-flow manner after the compound was mixed in 100 mM HEPES buffer (pH 7.4) at 25° C. to adjust the final concentration of the compound to 1 μM and that of zinc ions to 50 μM. The rate constant of complex formation was calculated by using the graph to give 1.6×10^6 M^−1s^−1 for Compound 8, 1.4×10^6 M^−1s^−1 for Compound 13, 7.8×10^4 M^−1s^−1 for Compound 17, and 1.3×10^6 M^−1s^−1 for Compound 22. […] Therefore, it is understood that zinc ions can be detected in a very short period of time, and rapid changes in the concentration of zinc ions can also be detected by using these compounds.
# CHO cells = test: Fluorescence intensity when zinc ions were intracellularly introduced into CHO cells; assay type: cell-based
# Procedure: Changes in fluorescence intensity were investigated when zinc ions in various concentrations were intracellularly introduced by using CHO cells. […] After the cells were washed with PBS(−) 3 times, the reagent was added as shown in the following Table 1, and changes in fluorescence intensity were measured.
# [2] = read-out: Kd value for zinc ions; cited from earlier work
SMILES,rate constant of complex formation [1] [M⁻¹ s⁻¹],also measured
O=C(O)c1ccc(NCCNCc2ccccn2)cc1-c1c2ccc(=O)cc-2oc2cc(O)ccc12 [Compound 8],1.6e+06,–
O=C(O)c1ccc(NCCN(CCc2ccccn2)Cc2ccccn2)cc1-c1c2ccc(=O)cc-2oc2cc(O)ccc12 [Compound 13],1.4e+06,–
O=C(O)c1ccc(NCCN(CCc2ccccn2)CCc2ccccn2)cc1-c1c2ccc(=O)cc-2oc2cc(O)ccc12 [Compound 17],78000,–
Cc1cccc(CN(CCNc2ccc(C(=O)O)c(-c3c4ccc(=O)cc-4oc4cc(O)ccc34)c2)Cc2ccccn2)n1 [Compound 22],1.3e+06,–
CC(=O)Oc1ccc2c(c1)Oc1cc(OC(C)=O)ccc1C21OC(=O)c2ccc(NCCN(CCc3ccccn3)Cc3ccccn3)cc21 [Compound 28],–,"change of fluorescence intensity of dyed cells with elevation of zinc ions introduced (CHO cells; CHO cells, 100 μM pyrithione, 0.3-300 μM ZnSO4): increased stepwise"
"CC(=O)Oc1ccc2c(c1)Oc1cc(OC(C)=O)ccc1C21OC(=O)c2ccc(NCCN(Cc3ccccn3)Cc3ccccn3)cc21 [ZnAF-2DA, reference compound]",–,"Kd [2]: 2.7 nM; zinc ion concentration at which fluorescence intensity reached the plateau (CHO cells; CHO cells dyed with 10 μM probe, 100 μM pyrithione plus ZnSO4): 3 µM"
